How the values were obtained:
Assay type in all cases: cell-based
HeLa cells = assay: Cytoprotection from ER stress (tunicamycin), cell viability by WST-8; design: key to Cytoprotection from ER stress compared to guanabenz: +: lower cytoprotective effect compared to Guanabenz; ++: similar cytoprotective effect compared to Guanabenz; +++: higher cytoprotective effect compared to Guanabenz; conditions: for Cytoprotection from ER stress compared to guanabenz: HeLa cells, 6 hour exposure to tunicamycin 5 μg/mL, compounds 0.5-10 μM, viability 48 h or 72 h
From the text: Cytoprotection against ER stress can be measured by a suitable assay. For example, cytoprotection can be measured in HeLa cells in which ER stress is elicited by the addition of media containing tunicamycin, a mixture of homologous nucleoside antibiotics that inhibits the UDP-HexNAc: polyprenol-P HexNAc-1-P family of enzymes and is used to induce unfolded protein response. Cell viability can be detected in the presence and absence of inhibitor compounds after a set period of time, by measuring the reduction of WST-8 into formazan using a standard cell viability kit (such as Cell Viability Counting Kit-8 from Dojindo). Cytoprotection from ER stress is measured in terms of the percentage increase in viable cells (relative to control) after ER stress. Further details of a suitable assay are set forth in the accompanying Examples section.
This assay is described in Tsaytler et al. (Science 2011). HeLa Cells were cultured in Eagle's Minimum Essential Medium (EMEM) supplemented with Glutamine, Sodium Pyruvate, Non-Essential Amino Acids, Penicillin and Streptomycin containing 10% Foetal Bovine Serum (FBS), at 37° C. in 5% CO2 atmosphere. Cells were plated in 96 well plates at a density of 17,000 cells/mL the day before the treatment. ER stress was elicited by addition of 5 μg/mL tunicamycin (Sigma-Aldrich) together with PPP1R15A inhibitors (0.5-10 μM). Media were changed 6h later with fresh media and the cytoprotection was maintained by the addition of PPP1R15A inhibitors (0.5-10 μM). Cell viability was assessed by measuring the reduction of WST-8 into formazan using Cell Counting Kit-8 (Sigma) according to the supplier's recommendation, 48 h or 72h after tunicamycin treatment. Cytoprotection from ER stress is measured in terms of cytoprotective potency effect compared to the reference compound Guanabenz (Tsaytler et al., Science 2011) after ER stress: • ‘+’ no cytoprotective effect; • ‘+’ lower cytoprotective effect compared to Guanabenz; • ‘++’ similar cytoprotective effect compared to Guanabenz; • ‘+++’ higher cytoprotective effect compared to Guanabenz.
Table 1 summarizes the results of cytoprotective effect of different compounds of the invention, compared to guanabenz, after the stress induced by a 6 hour exposure of tunicamycin.

human alpha2A receptor = target: T1, human alpha2A receptor (Homo sapiens, UniProt P08913); assay: Functional GPCR assay for adrenergic α2A receptor (CellKey detection method); conditions: agonist activity, CHO cells expressing human alpha2A receptor, impedance (CellKey); read-out: Functional adrenergic alpha2 receptor assay EC50
T1 construct: CHO cells endogenously expressing human alpha2A receptor; endogenous in cells; host or cells: CHO cells
T1 sequence (P08913 1-465): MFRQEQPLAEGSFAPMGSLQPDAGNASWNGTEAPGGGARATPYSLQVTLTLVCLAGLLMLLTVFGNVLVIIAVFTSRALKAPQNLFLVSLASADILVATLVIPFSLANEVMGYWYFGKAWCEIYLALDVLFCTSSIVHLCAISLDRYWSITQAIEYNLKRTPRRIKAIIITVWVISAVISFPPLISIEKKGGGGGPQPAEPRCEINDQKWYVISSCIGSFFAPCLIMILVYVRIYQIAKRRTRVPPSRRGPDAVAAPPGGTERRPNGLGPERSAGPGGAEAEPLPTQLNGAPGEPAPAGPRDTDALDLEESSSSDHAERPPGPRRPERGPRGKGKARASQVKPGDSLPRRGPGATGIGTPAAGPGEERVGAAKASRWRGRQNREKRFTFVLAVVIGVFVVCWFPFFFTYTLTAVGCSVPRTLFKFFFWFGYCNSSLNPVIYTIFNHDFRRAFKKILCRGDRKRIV
Method: The agonist activity of compounds was evaluated on CHO cells […] expressing human alpha2A receptor and was determined by measuring their effects on impedance modulation using the CellKey detection method. Cells were seeded onto 96-well plate at density of 6×10^4 cells/well in HBSS buffer (Invitrogen)+20 mM HEPES (Invitrogen) with 0.1% BSA and are allowed to equilibrate for 60 min at 28° C. before the start of the experiment. Plates were placed onto the system and measurements were made at a temperature of 28° C. Solutions were added simultaneously to all 96 wells using an integrated fluidics system: HBSS (basal control), reference agonist at 100 nM (stimulated control), reference agonist (EC50 determination) or the test compounds. Impedance measurements are monitored for 10 minutes after ligand addition. The standard reference agonist is epinephrine, which is tested in each experiment at several concentrations to generate a concentration-response curve from which its EC50 value is calculated.
Dose-response data from test compounds were analysed with Hill software using non-linear regression analysis of the concentration-response curves generated with mean replicate values using Hill equation curve fitting.

INS1 insulinoma cell = assay: INS1 cell line cytoprotection from ER stress (tunicamycin); conditions: 6 hour exposure to tunicamycin 2.5 μg/mL, different concentrations, viability 72h
Method: Cells were plated in 96 well plates at a density of 0.5.10^6 cells/mL for Min6 cell line, 0,4.10^6 cells/mL for INS1 cell line the day before the treatment. ER stress was elicited by addition of 2.5 μg/mL tunicamycin (Sigma Aldrich) together with phosphatases inhibitors. Media were changed 6h later with fresh media and the cytoprotection was maintained by the addition of phosphatases inhibitors. Cell viability was assessed by measuring the reduction of WST-8 into formazan using Cell Counting Kit-8 (Sigma) according to the supplier's recommendation, 72h after tunicamycin treatment.

| EC50 (human alpha2A receptor) | SMILES | Cytoprotection from ER stress compared to guanabenz (HeLa cells) | prevention of INS1 insulinoma cell death (FIG. 8) (INS1 insulinoma cell) | protection of Hela cells from ER stress (FIG. 1) (HeLa cells; ER stress induced by 6 hour exposure to tunicamycin) |
| --- | --- | --- | --- | --- |
| > 33.3 µM | CCONC(=N)N/N=C/c1c(F)cccc1Cl [Compound 17, 2-(2-chloro-6-fluorobenzylidene)-N-ethoxyhydrazinecarboximidamide] | +++ | prevent INS1 insulinoma cell death |  |
| > 33.3 µM | CCCONC(=N)N/N=C/c1ccccc1Cl [Compound 12, 2-(2-chlorobenzylidene)-N-propoxyhydrazinecarboximidamide] | +++ | prevent INS1 insulinoma cell death | dose dependent protection |
| > 0.7 µM | CCONC(=N)N/N=C/c1c(Cl)cccc1Cl [Compound 11, 2-(2,6-dichlorobenzylidene)-N-ethoxyhydrazinecarboximidamide] | +++ | prevent INS1 insulinoma cell death |  |
| > 33.3 µM | CCO/N=C(\N)N/N=C/c1ccccc1Cl [Compound 10, 2-(2-chlorobenzylidene)-N′-ethoxyhydrazinecarboximidamide] | ++ |  |  |
